# According to patent US20090281049A1, “New use of ginsenoside compound-k in manufacturing medicaments” (priority 2006, published 2009):
# Key:
# [1] = tested on: Collagen Type II (CII) induced arthritis in rats; experiment: Preventive effect on Collagen Type II (CII) induced arthritis in rats; type: in vivo, Rat, SD strain; details: 9 mg/kg sc
# Description: (§1) Inflammation-induced agent: Collagen Type II was dissolved in 0.1 mol/L acetic acid to make final concentration be 2 mg/ml collagen solution, and held in 4° C. overnight. The Collagen Type II solution was added to cold Freund's Adjuvant Incomplete by drops (Collagen Type II: Freund's Adjuvant Incomplete=1:1) on the next day, emulsified completely (Type II Collagen solution: Freund's Adjuvant Incomplete=1:1), and the final concentration of Collagen Type II was 1 mg/ml. The Collagen Type II emulsion was reserved in a refrigerator at 4° C.
# (§2) Immune method: Each rat was immunized by being injected subcutaneously at 5 points on the back with 0.1 ml emulsion in each point, total of […] (contained 0.5 mg Collagen Type II), and immunized again in the same way 7 days later. An emulsion of 0.1 mol/L acetic acid and Freund's Adjuvant Incomplete was injected in control group. The swell values of the arthrosis in right hind ankle and foot were measured respectively by using a hydroplethismometer before injection and 20 days after immunization.
# The Collagen Type II solution, which had been dissolved in acetic acid and held overnight, was adjusted to concentration 2 mg/ml, then added by drops slowly to Freund's Adjuvant Incomplete in proportion of 1:1. After the mixture was emulsified completely, each rat was injected subcutaneously at 5 points on the back with 0.1 ml emulsion in each point (total 0.5 ml in each rat, containing 0.5 mg Collagen Type II) for the first immunization. 7 days later, the second immunization was repeated in the same way.
# The animals were divided into large dose group: Ginsenoside Compound-K, 10 mg/kg, iv, medium dose group: Ginsenoside Compound-K, 5 mg/kg, iv, small dose group: Ginsenoside Compound-K, 2.5 mg/kg, iv, Tripterygium Wilfordii Hook group: 1.5 mg/kg, po-, Enbrel group: 9 mg/kg, sc and blank control group: physiological saline 10 mg/kg, iv. The animals of administration groups were administered at the first immunization and stopped administering 8 days after the first immunization. The swell value of arthrosis in ankle and foot was measured by using hydroplethismometer before immunization and on day 20, 22, 24, 27 and 29 after the first immunization respectively. Swell rate and inhibition rate were calculated by the same method as the foregoing. Differences among groups were compared with t test. When the treatment finished, the arthroses in ankle and foot were taken for pathological examination.
# [2] = tested on: Collagen Type II (CII) induced arthritis in rats; experiment: Treatment effect on Collagen Type II (CII) induced arthritis in rats; type: in vivo, Rat, SD strain; details: 9 mg/kg sc
# Description: as §1, §2
# Collagen Type II (CII) and Freund's Adjuvant Incomplete were ground into emulsion and were injected subcutaneously into the back of the rats for immunization. Until the 19th day, most parts of the pedal joint of the rats began to swell. Picked 40 rats out which were with swelled pedal joint and divided them into […] subsequently, i.e. 8 rats in each group. They are respectively […]: Ginsenoside Compound-K, 10 mg/kg, iv, medium dose group: Ginsenoside Compound-K, 5 mg/kg, iv, small dose group: Ginsenoside Compound-K, 2.5 mg/kg, iv, Enbrel group: 9 mg/kg, sc, Tripterygium Wilfordii Hook group: 1.5 mg/kg, po. and blank control group: physiological saline 10 mg/kg, iv. The rats were administered for 8 days consecutively. The swell value of the foot was measured respectively by using hydroplethismometer before inflammation induced and at different time after the onset of symptoms, then calculated swell rate and prohibition rate, and compared the differences among groups with t test.
substance,measurement,setting,value
enbrel,swell value,[1]; 0 day,1.06 ± 0.04 mL
same,inhibition rate,[1]; 20 day,<30.52> %
same,swell rate,[1]; 20 day,(36.48 ± 15.50) %
same,swell value,[1]; 20 day,1.38 ± 0.20 mL
same,inhibition rate,[1]; 22 day,<31.53> %
same,swell rate,[1]; 22 day,(35.30 ± 14.25) %
same,swell value,[1]; 22 day,1.36 ± 0.22 mL
same,inhibition rate,[1]; 24 day,<35.50> %
same,swell rate,[1]; 24 day,(33.88 ± 13.57) %
same,swell value,[1]; 24 day,1.34 ± 0.21 mL
same,inhibition rate,[1]; 27 day,<36.49> %
same,swell rate,[1]; 27 day,(32.16 ± 15.12) %
same,swell value,[1]; 27 day,1.34 ± 0.20 mL
same,inhibition rate,[1]; 29 day,<36.99> %
same,swell rate,[1]; 29 day,(27.63 ± 10.87) %
same,swell value,[1]; 29 day,1.31 ± 0.16 mL
same,swell value,[2]; 0 day,1.00 ± 0.08 mL
same,inhibition rate,[2]; 20 day,<4.41> %
same,swell rate,[2]; 20 day,(51.65 ± 15.35%
same,swell value,[2]; 20 day,1.51 ± 0.11 mL
same,inhibition rate,[2]; 22 day,<17.61> %
same,swell rate,[2]; 22 day,(49.63 ± 25.60) %
same,swell value,[2]; 22 day,1.48 ± 0.15 mL
same,inhibition rate,[2]; 23 day,<20.98> %
same,swell rate,[2]; 23 day,(49.20 ± 19.86) %
same,swell value,[2]; 23 day,1.48 ± 0.12 mL
same,inhibition rate,[2]; 25 day,<24.74> %
same,swell rate,[2]; 25 day,(46.43 ± 15.37) %
same,swell value,[2]; 25 day,1.46 ± 0.11 mL
same,inhibition rate,[2]; 28 day,<27.88> %
same,swell rate,[2]; 28 day,(37.24 ± 17.23) %
same,swell value,[2]; 28 day,1.36 ± 0.09 mL
same,inhibition rate,[2]; 31 day,<26.03> %
same,swell rate,[2]; 31 day,(36.24 ± 14.64) %
same,swell value,[2]; 31 day,1.35 ± 0.08 mL
